This note sets out measurements from patent US20250281649A1, “PROBE DIRECTED TO ENZYME ALDH1A3 AND USE THEREOF IN THE DIAGNOSIS OF GLIOBLASTOMA” (Universita' Degli Studi Del Piemonte Orientale "A. Avogadro", priority 2021, published 2025).

Read-outs that look alike come from different tables or passages of the source.

Series [1] deals with T1, ALDH1A1 (Homo sapiens, UniProt P00352).
T1 construct: His-tag; made in house; host or cells: bacterial cells
T1 sequence (P00352 1-501): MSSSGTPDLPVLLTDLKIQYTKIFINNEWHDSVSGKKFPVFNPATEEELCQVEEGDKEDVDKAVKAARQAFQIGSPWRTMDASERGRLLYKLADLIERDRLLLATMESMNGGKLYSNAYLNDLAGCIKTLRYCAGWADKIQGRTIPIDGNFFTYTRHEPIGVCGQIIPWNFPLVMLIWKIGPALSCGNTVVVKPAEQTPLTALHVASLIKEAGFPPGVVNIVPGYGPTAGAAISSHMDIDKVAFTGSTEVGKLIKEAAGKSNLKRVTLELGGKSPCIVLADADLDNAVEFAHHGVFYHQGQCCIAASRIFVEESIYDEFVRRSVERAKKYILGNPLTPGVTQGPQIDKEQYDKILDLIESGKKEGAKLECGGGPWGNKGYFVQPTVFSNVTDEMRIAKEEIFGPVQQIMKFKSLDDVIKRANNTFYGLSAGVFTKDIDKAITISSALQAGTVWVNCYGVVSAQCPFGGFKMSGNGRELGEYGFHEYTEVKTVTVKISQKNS
In words: IC50 evaluation, NADH formation at 340 nm (Tecan SUNRISE). Type of series: biochemical. The protocol:
(§1) A common protocol to express and purify all three members of the ALDHIA subfamily has been optimized. Briefly, induced cells, collected by centrifugation, were re-suspended in an appropriate volume of lysis buffer (50 mM Na2HPO4, 300 mM NaCl, 1 mM β-mercaptoethanol, 20 mM imidazole, pH 7.5) added of benzonase nuclease (250 U/μL) and Protease inhibitor cocktail from SIGMA. After ultracentrifugation, the clarified sample was purified by a His-tag affinity chromatography followed by size-exclusion chromatography, using an AKTA FPLC system, at 4° C. To evaluate the purity and homogeneity of the protein, after each purification step, eluted d fractions were analyzed by SDS-PAGE and the protein quantification was always determined by Bradford protein assay.
(§2) IC50 evaluation: on a Tecan—SUNRISE, probe 13 was tested in a serial dilution series from 200 μM to 3, 125 μM, against all the three isoenzymes. The recipe of reaction buffer was: 20 mM Tris HCl pH=8, 150 mM KCl, 1 mM B-mercaptoethanol, 500 μM NAD^+, 15% DMSO fixed, 20 mM acetaldehyde and 2.7 μM each isoenzyme. The analysis was conducted measuring the NADH formation, that has a specific absorbance wavelength (340 nm). The test was performed in triplicate with all the three isoenzymes.

For series [2], the target named is T2, ALDH1A2 (Homo sapiens, UniProt O94788).
T2 construct: His-tag; made in house; host or cells: bacterial cells
T2 sequence (O94788 1-518): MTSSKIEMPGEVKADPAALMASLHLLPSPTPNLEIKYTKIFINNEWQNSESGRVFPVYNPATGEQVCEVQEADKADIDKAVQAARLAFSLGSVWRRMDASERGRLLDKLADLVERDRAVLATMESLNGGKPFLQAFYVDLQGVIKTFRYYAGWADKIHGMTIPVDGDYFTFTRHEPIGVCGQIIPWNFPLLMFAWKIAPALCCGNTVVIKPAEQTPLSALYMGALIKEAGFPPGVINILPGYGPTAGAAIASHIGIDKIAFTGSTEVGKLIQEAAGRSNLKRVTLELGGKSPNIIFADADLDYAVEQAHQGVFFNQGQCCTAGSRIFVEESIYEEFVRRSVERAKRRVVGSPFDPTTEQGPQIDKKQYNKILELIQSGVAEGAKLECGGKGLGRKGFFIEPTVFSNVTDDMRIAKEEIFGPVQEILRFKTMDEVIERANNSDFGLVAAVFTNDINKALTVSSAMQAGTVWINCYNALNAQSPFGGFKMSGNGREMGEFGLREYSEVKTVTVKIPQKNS
The description is as above. Type of series: biochemical. The settings on record: 20 mM acetaldehyde, 500 μM NAD+, 15% DMSO, 2.7 μM isoenzyme. The procedure: as §1, §2

The target of series [3] is T3, ALDH1A3 (Homo sapiens, UniProt P47895).
T3 construct: His-tag; made in house; host or cells: bacterial cells
T3 sequence (P47895 1-512): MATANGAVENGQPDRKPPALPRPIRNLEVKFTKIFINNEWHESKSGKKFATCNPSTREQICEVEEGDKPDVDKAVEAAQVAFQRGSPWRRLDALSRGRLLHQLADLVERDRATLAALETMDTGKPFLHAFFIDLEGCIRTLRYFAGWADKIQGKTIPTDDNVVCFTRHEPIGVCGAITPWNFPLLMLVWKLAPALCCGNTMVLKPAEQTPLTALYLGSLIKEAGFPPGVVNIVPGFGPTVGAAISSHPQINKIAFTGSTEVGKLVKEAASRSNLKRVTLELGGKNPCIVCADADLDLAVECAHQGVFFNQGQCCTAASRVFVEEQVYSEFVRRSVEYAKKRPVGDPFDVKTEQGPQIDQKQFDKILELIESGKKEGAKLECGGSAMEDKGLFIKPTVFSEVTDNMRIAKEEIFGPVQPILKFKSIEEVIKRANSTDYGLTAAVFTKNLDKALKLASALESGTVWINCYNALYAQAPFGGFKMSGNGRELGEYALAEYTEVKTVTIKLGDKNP
The description is as above. Type of series: biochemical. The procedure:
as §1, §2

In series [4] the target is T1, ALDH1A1. In words: KD evaluation by probe fluorescence (Tecan SPARK). Type of series: binding. The following applies: probe fixed at 10 μM, isoenzyme 100 μM to 1 μM. The protocol: as §1
(§3) KD evaluation: on a Tecan—SPARK, probe 14 and 13 were tested at a fixed concentration of 10 μM. All the isoenzymes were tested in wide range of concentrations (from 100 μM to 1 μM). The analysis was settled with a BW of 20, monitoring the Em wavelength in range comprised between 520 and 535 nm for probe 14 and 520 and 580 nm for probe 13. The Ex was fixed at 420 nm for probe 14 and 440 nm for probe 13. The test was performed in quadruplicate with all the three isoenzymes. The recipe of the buffer reaction was the same as described before.

The target in series [5] is T2, ALDH1A2. In words: KD evaluation by probe fluorescence (Tecan SPARK). Type of series: binding. The following applies: probe fixed at 10 μM, isoenzyme 100 μM to 1 μM. The protocol: as §1, §3
In series [6] the target is T3, ALDH1A3. In words: KD evaluation by probe fluorescence (Tecan SPARK). Type of series: binding. The procedure:
as §1, §3

For series [7], the target named is T3, ALDH1A3. In words: Fluorescence of probes in buffer and in complex with the isoenzymes (Tecan SPARK). Type of series: binding. The following applies: in complex with the three isoenzymes, in particular ALDH1A3. The protocol:
All five compounds were dissolved in DMSO (100%) to obtain two different initial stocks, one at 10 mM and a second one at 1 mM. […] The assay can be executed at a maximum DMSO percentage of 15%. The maximum probe concentration tested was 500 uM—15% DMSO. All the compounds were tested using a Tecan—SPARK, to analyze their absorbance, excitation and emission wavelength. Based on the literature, the absorbance of the curcumin by itself is comprised between 420 and 425 nm. At first, we measured the absorbance, and from those values, we performed a 3D analysis to highlights the correct Ex and Em wavelengths. To avoid any possible background in the fluorescence signal we performed a screening of every possible buffer used in our assays.

Substrate in series [8]: COc1cc(/C=C/C(=O)/C=C(O)/C=C/c2ccc(OCc3cn(CCOc4ccc(C=O)cc4)nn3)c(OC)c2)ccc1O
In words: KM evaluation, compound as possible substrate, NADH formation. The settings on record: 5% DMSO, pH 7.5. Type of series: biochemical, human. The protocol: as §1
KM evaluation: on a Tecan—SUNRISE, due to the inconsistency of result of the KD evaluation with probe 13 and to its chemistry nature (benzaldehyde), we performed an analysis to evaluate this compound possible substrate. The compound was tested in a serial dilution from 300 to 3.125 μM, at 5% DMSO. The analysis was conducted measuring the NADH formation, that has a specific absorbance wavelength (340 nm). The recipe of the buffer reaction was the same as described before. The assay was performed only for ALDH1A1 and ALDH1A2. The test was performed in triplicate with all the three isoenzymes.

Setting [9] is: ALDH1A1, 20 mM acetaldehyde, 500 μM NAD+, 15% DMSO, 2.7 μM isoenzyme, read-out: IC50.
The mark [10] stands for this setting: ALDH1A3, 20 mM acetaldehyde, 500 μM NAD+, 15% DMSO, 2.7 μM isoenzyme, read-out: IC50.
The mark [11] stands for this setting: ALDH1A3, probe fixed at 10 μM, isoenzyme 100 μM to 1 μM, read-out: KD.

Take `COc1cc(/C=C/C(O)=C/C(=O)/C=C/c2ccc(N(C)C)cc2)ccc1OCc1cn(CCOc2ccc(C=O)cc2)nn1` [Compound 15]: the IC50 was 28.5 µM on ALDH1A1 [1] (setting [9]), “N.I” at ALDH1A2 [2] and 5.1 µM on ALDH1A3 [3] (setting [10]). Further, the values for the Kd at ALDH1A1 [4], on ALDH1A2 [5] and at ALDH1A3 [6] (setting [11]) were 23.9 µM, 8.7 µM and 20.4 µM, respectively. On ALDH1A3 [7], the “increase of fluorescence in complex with the isoenzymes” value is “no good result”.
As to `CCOP(=O)(OCC)Oc1ccc(/C=C/C(=O)/C=C(O)/C=C/c2ccc(OCc3cn(CCOc4ccc(C=O)cc4)nn3)c(OC)c2)cc1OC` [Compound 16], the IC50 was 150 µM at ALDH1A1 [1], “N.I” on ALDH1A2 [2] and 8.5 µM against ALDH1A3 [3]. Moreover, the Kd at ALDH1A3 [6] worked out at 55.7 µM. For the same molecule, the “increase of fluorescence in complex with the isoenzymes” value on ALDH1A3 [7] is “no good result”.
In the case of `CCOC(=O)Cn1cc(COc2ccc(C=CC(=O)C=C(O)C=Cc3ccc(OP(=O)(OCC)OCC)c(OC)c3)cc2OC)nn1` [Compound 17], the IC50 is 70.1 µM at ALDH1A1 [1] (setting [9]), “N.I” on ALDH1A2 [2] and 158 µM on ALDH1A3 [3] (setting [10]). The Kd at ALDH1A1 [4] was 18.1 µM; at ALDH1A3 [6] (setting [11]) it was 14.9 µM.

B1: ALDH1A2 (Homo sapiens) (protein)
chain: MTSSKIEMPGEVKADPAALMASLHLLPSPTPNLEIKYTKIFINNEWQNSESGRVFPVYNPATGEQVCEVQEADKADIDKAVQAARLAFSLGSVWRRMDASERGRLLDKLADLVERDRAVLATMESLNGGKPFLQAFYVDLQGVIKTFRYYAGWADKIHGMTIPVDGDYFTFTRHEPIGVCGQIIPWNFPLLMFAWKIAPALCCGNTVVIKPAEQTPLSALYMGALIKEAGFPPGVINILPGYGPTAGAAIASHIGIDKIAFTGSTEVGKLIQEAAGRSNLKRVTLELGGKSPNIIFADADLDYAVEQAHQGVFFNQGQCCTAGSRIFVEESIYEEFVRRSVERAKRRVVGSPFDPTTEQGPQIDKKQYNKILELIQSGVAEGAKLECGGKGLGRKGFFIEPTVFSNVTDDMRIAKEEIFGPVQEILRFKTMDEVIERANNSDFGLVAAVFTNDINKALTVSSAMQAGTVWINCYNALNAQSPFGGFKMSGNGREMGEFGLREYSEVKTVTVKIPQKNS
notes: His-tag; made in house; host or cells: bacterial cells
For the molecule B1, in series [8] (other: ALDH1A2, 300 to 3.125 μM), the Km was 220.0 µM.

B2: ALDH1A1 (Homo sapiens) (protein)
chain: MSSSGTPDLPVLLTDLKIQYTKIFINNEWHDSVSGKKFPVFNPATEEELCQVEEGDKEDVDKAVKAARQAFQIGSPWRTMDASERGRLLYKLADLIERDRLLLATMESMNGGKLYSNAYLNDLAGCIKTLRYCAGWADKIQGRTIPIDGNFFTYTRHEPIGVCGQIIPWNFPLVMLIWKIGPALSCGNTVVVKPAEQTPLTALHVASLIKEAGFPPGVVNIVPGYGPTAGAAISSHMDIDKVAFTGSTEVGKLIKEAAGKSNLKRVTLELGGKSPCIVLADADLDNAVEFAHHGVFYHQGQCCIAASRIFVEESIYDEFVRRSVERAKKYILGNPLTPGVTQGPQIDKEQYDKILDLIESGKKEGAKLECGGGPWGNKGYFVQPTVFSNVTDEMRIAKEEIFGPVQQIMKFKSLDDVIKRANNTFYGLSAGVFTKDIDKAITISSALQAGTVWVNCYGVVSAQCPFGGFKMSGNGRELGEYGFHEYTEVKTVTVKISQKNS
notes: as for B1
In the case of B2, in series [8] (other: ALDH1A1, 300 to 3.125 μM), the Km was 255.2 µM.

One may read the IC50 as the concentration needed to halve the response being measured. What is called Kd is the concentration at which binding is half-saturated. By Km is commonly meant the substrate concentration at which the rate is half of its maximum.
